# Experimental data as given in patent US6485742B1, “Process for producing coated preparation and its use” (BASF Aktiengesellschaft, priority 1999, dated 2002).
# Assay: Change in appearance (browning) of filled gelatin capsules on storage
# Format: physicochemical
# Settings: 0.4 g in gelatin capsules, sealed glass bottle, 40° C. for 30 days
# Procedure: Each (0.4 g) of calcium L-ascorbate and the coated calcium L-ascorbate (70% L-ascorbate content) produced in Example 4 was filled in gelatin capsules (manufactured by Warner-Lambert Company, body volume 0.68 ml) and the capsules were placed in a transparent glass bottle. The bottle was sealed and stored in an incubator at 40° C. for 30 days to observe the change in appearances.
substance,measurement,value
calcium L-ascorbate,Browning of filled gelatin capsules (change in appearance),severe browning
